This is an account of results in patent US20040147006A1, “Peptides that bind to DNA and inhibit DNA replication, and methods of use” (priority 2001, published 2004).

The target in test [1] is T1, T-ag oligomerization on 64-bp oligonucleotide containing the SV40 core origin (Simian virus 40, UniProt P03070).
T1 construct: made in house
It is filed as biochemical. The settings on record: for Effect on T-ag oligomerization: peptide final concentration 0.5 mM. The method, then: (§1) Electrophoretic mobility shift assays (EMSA). Double stranded oligonucleotides, ^32P labeled at 5′ termini, were prepared using standard procedures (Sambrook, J., et al., 1989, Cold Spring Harbor Laboratory, Cold Spring Harbor, N.Y.; Sreekumar, K. A., et al., 2000, p. 49-67; In, L. Raptis (ed.), Methods in Molecular Biology; SV40 Protocols; Humana Press; Totowa, N.J.). EMSA rections were conducted using conditions for SV40 in vitro replication (Wobbe, C. R., et al., 1985, Proc. Natl. Acad. Sci. USA 82:5710-571 4). The reactions (20 μl) contained 7 mM MgCl2, 0.5 mM DTT, 4 mM AMP-PNP, 40 mM creatine phosphate (pH 7.6), 0.48 μg of creatine phosphate kinase, 5 μg of bovine serum albumin, 0.8 μg of Hae III-digested pBR322 ([…]; used as a nonspecific competitor), about 25 fmol of double stranded oligonucleotide, T-ag and the indicated amounts of peptide. After a 20-min incubation at 37° C., glutaraldehyde (0.1 % final concentration) was added and the reaction products were further incubated for 5 min. The reactions were stopped by the addition of 5 μl of 6× loading dye II (15% Ficoll, 0.25% bromophenol blue, and 0.25% xylene cyanol; Sambrook, J., et al., 1989, Cold Spring Harbor Laboratory, Cold Spring Harbor, N.Y.) to the reaction mixtures. Samples containing T-ag were applied to 3.5 to 12% gradient polyacrylamide gels and electrophoresed in 0.5% Tris-borate-EDTA (TBE) pH 8.4 for about 1.5 h (10 watts).

The test system of test [2] is double stranded oligonucleotide containing the SV40 core origin (SEQ ID NO: 24). Kind of test: Nitrocellulose filter binding of peptide to DNA. The settings on record: for Binding to DNA in filter binding assay, mutant set: 20 nmoles peptide (1 mM final concentration); for Binding to DNA in filter binding assay, E1 peptides: peptide 0.25 mM and 0.5 mM. How it is done:
Nitrocellulose filter binding reactions. Assay for the ability of NLS based peptides to bind to DNA were performed using published methods (Sreekumar, K. A., et al., 2000, In, L. Raptis (ed.), Methods in Molecular Biology: SV40 Protocols; Humana Press, Totowa, N.J. p. 49-67). Reactions (20 μl) contained 7 mM MgCl2, 0.5 mM DTT, 4 mM AMP-PNP, 40 mM creatine phosphate (di-Tris salt pH7.7), 0.48 μg of creatine phosphokinase, 0.2 mg of bovine serum albumin per ml, 0.8 μg of Hae III-digested pBR322 DNA, about 25 fmol of a given oligonucleotide (about 10^6 cpm/pmol) and the indicated peptide. After incubation for 20 min at 37° C., the mixtures were filtered under suction through alkali-treated nitrocellulose filters (Millipore type HAWP; pore size, 0.4 μm; stored in 100 mM Tris-HCl, pH7.5). The filters were then washed with 5 ml of 100 mM Tris-HCl, pH 7.5, and were dried and counted in a Beckman LS 3801 scintillation counter.

In test [3] the test system is 64 bp SV40 core origin (SEQ ID NO: 24). Kind of test: Peptide band shift (EMSA without T-ag), core origin. Type of test: binding. The settings on record: SV40 core origin. How it is done:
as §1
[…] Moreover, the samples were loaded on 8% polyacryamide gels and electrophoresed in 0.5% TBE pH 8.4 for about 3h (about 200 volts). The gels were dried on Whatman 3 MM paper, subjected to autoradiography and quantitated using a Molecular Dynamics PhosphorImager (Sunnyvale, Calif.).

Test [4] has as its system 64 bp enhancer control (SEQ ID NO: 29). Put plainly: Peptide band shift (EMSA without T-ag), control oligonucleotide. Type of test: binding. The following applies: 64 bp enhancer control oligonucleotide; listed as peptide T124A13. The method, then:
as §1
Peptide based band shift reactions were identical to those described above except that T-ag was omitted from the reactions and the final glutaraldehyde concentration was reduced to 0.05 %. Moreover, the samples were loaded on 8% polyacryamide gels and electrophoresed in 0.5% TBE pH 8.4 for about 3h (about 200 volts). The gels were dried on Whatman 3 MM paper, subjected to autoradiography and quantitated using a Molecular Dynamics PhosphorImager (Sunnyvale, Calif.).

Test [5] deals with T2, T-ag helicase ATPase (Simian virus 40, UniProt P03070).
T2 construct: made in house
It is filed as biochemical, SV40. The settings on record: duplicate lanes, FIG. 13. How it is done: A method for measuring ATP hydrolysis involves incubating T-ag with a ^32P-labeled ATP, cross-linking with gluteraldehyde, removing unincorporated nucleotides by passing the reaction products over a Bio-Spin P-30 column, drying the eluate in a Speedvac, resuspending the samples in formic acid, and performing thin layer chromatography on PEI (polyethyleneimine) plates. Using autoradiography, the amount of ATP, ADP and AMP associated with T-ag was determined.

Test [6] relates to SV40 DNA replication in HeLa human cell crude extracts. Kind of test: SV40 in vitro replication reaction. Type of test: biochemical. The settings on record: 30 μl reactions, with T-ag. The method, then:
DNA replication reactions. SV40 in vitro replication reactions were conducted as described by Wobbe et al 1985, Proc. Natl. Acad. Sci. USA 82:5710-5714 (see also, Bullock, P. A., et al., 1998, p. 223-243. In S. Cotterill (ed.), Eukaryotic DNA Replication; A practical Approach, Oxford University Press, Oxford). Reaction mixtures (30 μl) contained 7 mM MgCl2, 0.5 mM DTT, 4 mM ATP, 40 mM creatine phosphate (di-Tris salt pH7.7), 1.4 μg of creatine phosphokinase, 12.5 μg/ml pSV01ΔEP, dATP, dGTP, and dTTP (100 μM each), CTP, GTP, and UTP (200 μM each), [α-^32p] dCTP (20 μM, about 5 cpm/fmol) and the indicated peptides.

[7] abbreviates: T-ag 6 pmol, 64-bp SV40 core origin, peptide concentration not given.
[8] abbreviates: 13-mer set at 1 mM final concentration (20 nmoles).
Where [9] appears, read: peptide 0.5 mM to 2 mM, replication conditions, pBR322 competitor.
[10] abbreviates: peptide final concentration 1 mM (20 nmoles), T-ag 6 pmol.
Setting [11] is: high peptide concentrations (1 mM and 2 mM).

Entries after “also recorded” stand apart in the source; their conditions may differ. Read-outs that look alike come from different tables or passages of the source.

T1 sequence (P03070 whole entry): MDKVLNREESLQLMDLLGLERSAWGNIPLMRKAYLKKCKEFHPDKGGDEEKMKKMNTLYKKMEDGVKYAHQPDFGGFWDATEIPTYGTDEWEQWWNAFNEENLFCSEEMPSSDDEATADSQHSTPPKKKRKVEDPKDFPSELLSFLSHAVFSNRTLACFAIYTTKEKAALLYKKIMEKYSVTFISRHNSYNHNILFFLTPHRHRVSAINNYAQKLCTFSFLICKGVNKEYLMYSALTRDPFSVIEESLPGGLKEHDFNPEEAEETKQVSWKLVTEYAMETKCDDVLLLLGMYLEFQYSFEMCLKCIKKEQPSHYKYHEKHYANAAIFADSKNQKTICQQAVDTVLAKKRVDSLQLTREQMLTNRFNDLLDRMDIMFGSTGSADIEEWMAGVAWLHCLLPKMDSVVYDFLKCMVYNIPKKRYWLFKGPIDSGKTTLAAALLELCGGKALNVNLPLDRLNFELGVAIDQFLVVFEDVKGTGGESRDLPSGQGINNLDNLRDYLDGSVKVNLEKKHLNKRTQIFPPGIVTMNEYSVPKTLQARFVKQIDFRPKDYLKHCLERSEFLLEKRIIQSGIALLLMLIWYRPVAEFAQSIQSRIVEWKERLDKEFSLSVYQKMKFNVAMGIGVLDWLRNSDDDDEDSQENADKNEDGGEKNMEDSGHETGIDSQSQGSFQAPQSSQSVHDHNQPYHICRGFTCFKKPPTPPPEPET
T2 sequence (P03070 whole entry): as above

Turning to ADSQHSAPPKKKR [T124A13], the “Effect on T-ag oligomerization, mutant set (FIG. 11 Panel B)” value (shortened to “Effect … (FIG. 11 Panel B)”) in test [1] (setting [7]) is “does not destroy the inhibitory property of the peptide”. Also, in test [2], the “Binding to DNA in filter binding assay, mutant set” value (“Binding to DNA … mutant set” for short) is “bind to DNA as well as does wild type peptide T-213”. In addition, the “Peptide/DNA complex formation in peptide band shift” value in test [3] (setting [8]) is “does not affect DNA binding”; in test [3] (13-mer set at 1 mM final concentration (20 nmoles), listed as peptide T124A13) it was “bound to DNA and formed a complex; also recorded: Mobility shifts are seen”; in test [4], “does not require a large degree of sequence specificity; also recorded: requires little demonstrable nucleotide sequence specificity; also recorded: Mobility shifts are seen”.

Take ADSQHSTAPKKKR [P125A13]: the “Effect … (FIG. 11 Panel B)” value in test [1] (setting [7]) is reported as “Full inhibition of oligomerization”. The “Binding to DNA … mutant set” value in test [2] is “bind to DNA as well as does wild type peptide T-213”.

As to ADSQHSTPAKKKR [P126A13], the “Effect … (FIG. 11 Panel B)” value in test [1] (setting [7]) is “Full inhibition of oligomerization”. For the same substance, the “Binding to DNA … mutant set” value in test [2] is listed as “bind to DNA as well as does wild type peptide T-213”.

As for ADSQHSpTPPKKKR [peptide 113], in test [1], the “Effect on T-ag oligomerization (hexamer and double hexamer formation)” value (from here on “Effect … (hexamer and double hexamer formation)”) is reported as “little or no effect on T-ag oligomerization”; the “Effect … (FIG. 11 Panel B)” value was “did not; also recorded: no inhibition of oligomerization of T-ag”. Moreover, the “Binding to DNA in filter binding assay” value in test [2] (setting [9]) is on record as “did not bind DNA at significant levels”. In test [2] (peptide 0.5 mM to 2 mM, replication conditions, pBR322 competitor, listed as peptide T-113), the “Binding to DNA in filter binding assay” value is reported as “did not bind to the oligonucleotide at significant levels”. Further, the “Effect on ATPase of T-ag” value in test [5] is “did not modulate the ATPase of T-ag activity”.

For the substance “ATADSQHSTPPKKKRKV (Virus; Host Macaca mulatta; DOMAIN (1)..(17) Domain SV40 T-Antigen (116)...(132)) [peptide 217, 17-mer of SV40 T-ag with complete NLS]”, the “Effect on T-ag oligomerization” value in test [1] (T-ag 6 pmol) is “inhibited T-ag oligomerization”. The “Effect … (hexamer and double hexamer formation)” value in test [1] (setting [10]) is recorded as “completely blocked”. Also, the “Binding to DNA in filter binding assay” value in test [2] (setting [11]) is on record as “saturated”; in test [2] (peptide 0.5 mM), “significant binding was observed”; in test [2] (setting [9]) it was “relatively high affinity for binding to DNA”; in test [2] (peptide 0.5 mM to 2 mM, replication conditions, pBR322 competitor, listed as peptide T-217), “higher affinity for this DNA than does peptide T-213”. Besides, the “Inhibition of SV40 in vitro DNA replication” value (shortened to “Inhibition of SV40”) in test [6] is “not an efficient inhibitor of DNA replication; also recorded: unable to inhibit replication”.

In the case of ATADSQHSpTPPKKKRKV [peptide 117], the “Effect … (hexamer and double hexamer formation)” value in test [1] is on record as “no inhibition of T-ag assembly”. The “Binding to DNA in filter binding assay” value is reported as “observed to bind to DNA” in test [2] (setting [11]); “observed to bind to DNA at higher peptide concentrations” in test [2] (high peptide concentrations (1 mM and 2 mM), listed as peptide T-117).

Turning to “KKRRKRVKLVGPSTSEQSNASESSG [SEQ ID NO: 30]”, the entries for the “Inhibition of SV40” value in test [6] and in test [6] (listed as SEQ ID NO:30) were “retains ability to inhibit replication of DNA” and “good inhibitor of DNA replication”, respectively.

“PPKKKRKVTATADSQHS [peptide 417, rearranged control 17-mer]”: the “Effect on T-ag oligomerization” value in test [1] (T-ag 6 pmol) is listed as “did not inhibit”; in test [1] (T-ag 6 pmol, listed as peptide T-417), “did not”. In addition, the “Binding to DNA in filter binding assay” value in test [2] (setting [11]) was “observed to bind to DNA”; in test [2] (high peptide concentrations (1 mM and 2 mM), listed as peptide T-417), “observed to bind to DNA at higher peptide concentrations”.

As for PPKKKRKVpTATADSQHS [peptide 317], the “Effect … (hexamer and double hexamer formation)” value in test [1] is listed as “no inhibition of T-ag assembly”.

In the case of “PPKKKRTADSQHS [peptide 413, rearranged control 13-mer]”, in test [1] (setting [10]), the “Effect … (hexamer and double hexamer formation)” value was “little or no effect on T-ag oligomerization”. Moreover, the “Binding to DNA in filter binding assay” value in test [2] (setting [11]) is recorded as “Low levels of binding”; in test [2] (high peptide concentrations (1 mM and 2 mM), listed as peptide T-413), “low levels of binding”. Also, the “Peptide/DNA complex formation in peptide band shift” value in test [3] (setting [8]) is on record as “did not”.

For PPKKKRpTADSQHS [peptide 313], the “Effect … (hexamer and double hexamer formation)” value in test [1] is recorded as “little or no effect on T-ag oligomerization”.

For the substance “RKVLGSSQNSSGSEASEpTPVKRRK [peptide E1-P125]”, the “Binding to DNA in filter binding assay, E1 peptides” value in test [2] was “binds to DNA at levels similar to the control peptide E1-425”. In test [5], the “Effect on ATPase of T-ag” value was “had no effect”.

As for “SEASETPVKRRKGKRKVLGSSQNSS [control BP-E125]”, in test [1] (5 nmol peptide, final concentration 0.25 mM, T-ag 6 pmol), the “Effect on T-ag assembly, E1 Cdk/NLS peptides” value is given as “found not to block T-ag assembly”. Moreover, the “Binding to DNA in filter binding assay, E1 peptides” value in test [2] is given as “bound to DNA at much reduced levels”. Besides, the “Inhibition of SV40” value in test [6] was “not an efficient inhibitor of replication”.

Take SQHSTPPKK [peptide 29]: in test [3] (peptide 2 mM), the “Peptide/DNA complex formation in peptide band shift” value is given as “binding was not detected”.
